For one assay, the system named is AMPK and mTOR signaling. The assay is described as follows: Western blotting of AMPK and mTOR signaling, CD44 low cells. Type of assay: cell-based, mice. The conditions noted are these: presence or absence of SPD 0.2 μM, 1 hour and 2 hours. The protocol: (§1) FIG. 5 CD8^+ T cells were isolated from the spleen of mice without tumor inoculation, and further isolated into CD44^+ (CD44 high) and CD44^− (CD44 low) cell populations. a) CD44 low cells were simulated with CD3/CD28 antibody beads and SPD (0.2 μM). […] Protein expression levels after 1 hour and 2 hours were confirmed by western blotting with the respective indicated antibodies. As regards statistical analysis, t-test was used for comparison of two groups. * p<0.05, ** p<0.01, *** p<0.001, **** p<0.0001.
CD8^+ T cells were isolated using mouse CD8 Microbeads (Miltenyi Biotec or Mojo). After washing with PBS twice, 2×10^6 cells were solubilized in a lysis buffer containing 30 mM Tris-HCl (pH. 7.4), 150 mM NaCl, 10% glycerol, 0.1% SDS, 1% Triton-X-100, 0.05% Na-Doc, 5 mM EDTA (pH. 8.0), protease inhibitor mixture (Roche Molecular Biochemicals) and phosphatase inhibitors (Nacalai Tesque). After measurement of protein concentrations by DC protein assay (Bio-Rad), 4 μg of proteins was mounted on 4 to 20% gradient Mini-PROTEAN TGX Gels (Bio-Rad) and electroblotted onto nitrocellulose membranes, which were then incubated in a blocking buffer of TBS containing 1% BSA. Primary antibody incubations were carried out overnight at 4° C. in blocking buffer. After washing, secondary antibody incubations were carried out at room temperature for 40 min in blocking buffer. […]

The next assay relates to MC38 cells. The assay is described as follows: MC38 therapy model in aged mice, tumor growth and survival. The format is in vivo. To be noted: 56-week old mice; combination PD-L1 antibody (2 mg/kg) + SPD (2 mg/kg). As for the experimental part: FIG. 7 MC38 cells (5×10^5) were intradermally inoculated into 56-week old mice, which were treated along with the treatment schedule described in FIG. 1. PD-L1 antibody (2 mg/kg) and SPD (2 mg/kg) were used. a) Tumor growth curve and survival curve are shown. b) The frequency of CD8^+ T cells among lymphocytes infiltrating into tumor (in CD45^+ gate) and the absolute number of CD8^+ T cells per mg tumor 13 days after tumor inoculation are shown. c) CD8^+ T cells were isolated from spleen cells on the same schedule as b) and cultured for 20 hours under the stimulation with CD3/CD28. Cell proliferation was examined by means of ^3H uptake. d) CD8^+ T cells were isolated from draining lymph nodes on the same schedule as b) and glycolytic pathway-derived or mitochondrial metabolism-derived ATP production was calculated by Seahorse. e) Spare respiratory capacity (SRC) was also calculated in the experiment (d).
MC38 cells (5×10^5) were intradermally injected on the right flank. […] Tumors were measured on every alternate day, and tumor volumes were calculated using the formula for typical ellipsoid, π×(length×breadth×height/6).
It is known from mouse model experiments that the effect of PD-1 inhibitory antibody therapy decreases in aged mice due to their decreased immunity. […] Spare respiratory capacity (SRC) was also calculated. […]

A further assay has as its system MethA or CT26 cells. The assay is described as follows: MethA or CT26 tumor model. Type of assay: in vivo, BALB/c mice. To be noted: BALB/c mouse, MethA (SPD 1 mg/kg) or CT26 (SPD 4 mg/kg), with PD-L1 antibody 2 mg/kg. As for the experimental part:
(§2) FIG. 2-2 a-b) MethA or CT26 cells were intradermally inoculated into BALB/c mice. Ten days after inoculation, PD-L1 antibody (2 mg/kg), PD-L1 antibody+SPD (1 mg/kg for Meth A, 4 mg/kg for CT26) or SPD alone was administered. c) LLC cells were intradermally inoculated into C57BL/6 mice. Ten days after inoculation, mice were treated in the same manner as described in a-b) above. SPD was administered at 4 mg/kg. d) MC38 cells were inoculated into C57BL/6 Rag2^−/− mice. Ten days after inoculation, mice were treated in the same manner as described in a-b) above. SPD was administered at 5 mg/kg. Tumor growth curve and survival curve are shown.

For the next assay, the system named is LLC cells. The assay is described as follows: LLC tumor model. The format is in vivo, C57BL/6 mice. The conditions noted are these: SPD 4 mg/kg + PD-L1 antibody. The protocol:
as §2

A further assay relates to CD44 high CD8+ T cells. Nature of the assay: Observation of mitochondria under electron microscope, CD44 high cells. Type of assay: cell-based, mice. The conditions noted are these: SPD 0.2 μM, 1 hour. As for the experimental part:
as §1
CD8^+ T cells (2×10^5) were stimulated with 0.2 μM spermidine for 1 hour. Then, cells were harvested, embedded in Ipgell (GenoStaff) and fixed with 4% paraformaldehyde and 2% glutaraldehyde. Images were taken with a transmission electron microscope (TEM). Mitochondrial size was determined with ImageJ software. As regards mitochondrial number, average numbers in single cell were determined with Prism software. Blind testing was used for observation and analysis of mitochondria.

Structures are written as SMILES.

Turning to `NCCCCNCCCN` [SPD, spermidine], in the assay with AMPK and mTOR signaling, the “AMPK and mTOR signaling” value is “did not cause much difference”. In addition, the tumor shrinking effect entry in the assay with MC38 cells is recorded as “enhanced tumor shrinking effect”. Moreover, in the assay on MethA or CT26 cells, the “effect of SPD for enhancing the antitumor immunity of PD-1 inhibition” value is on record as “confirmed”. In the assay on LLC cells, the “antitumor effect of PD-1 inhibitory antibody with SPD” value was “exhibit the antitumor effect”. Besides, in the assay on CD44 high CD8+ T cells, the mitochondrial morphology entry is given as “fusion of mitochondria”, the “number of mitochondria per cell” value is recorded as “decreased”, the size per mitochondrion entry is “increased” and the structure of cristae result is “damaged in structures”.

For the origin of these results see patent US20220401385A1, “Combination Therapy Based on PD-1 Signaling Inhibitors” (Kyoto University, priority 2019, published 2022).
